Assay results: ChEMBL document CHEMBL1909046, “DrugMatrix in vitro pharmacology data”

Legend:
[1] = molecular target: Aldo-keto reductase family 1 member B1 (Rattus norvegicus, UniProt P07943); assay: biochemical; format: tissue-based, Lens of camera-type eye;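 further: inhibition of aldose reductase enzyme activity, measured with DL-glyceraldehyde as the substrate; in other assays of this panel Not Active means under 50% inhibition at 10 µM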
[2] = molecular target: T1, Cholecystokinin receptor type A (Homo sapiens, UniProt P32238); format: cell membranes, Membrane; conditions: 1321-n1; further: in other assays of this panel Not Active means under 50% inhibition at 10 µM
T1 sequence (P32238 whole entry): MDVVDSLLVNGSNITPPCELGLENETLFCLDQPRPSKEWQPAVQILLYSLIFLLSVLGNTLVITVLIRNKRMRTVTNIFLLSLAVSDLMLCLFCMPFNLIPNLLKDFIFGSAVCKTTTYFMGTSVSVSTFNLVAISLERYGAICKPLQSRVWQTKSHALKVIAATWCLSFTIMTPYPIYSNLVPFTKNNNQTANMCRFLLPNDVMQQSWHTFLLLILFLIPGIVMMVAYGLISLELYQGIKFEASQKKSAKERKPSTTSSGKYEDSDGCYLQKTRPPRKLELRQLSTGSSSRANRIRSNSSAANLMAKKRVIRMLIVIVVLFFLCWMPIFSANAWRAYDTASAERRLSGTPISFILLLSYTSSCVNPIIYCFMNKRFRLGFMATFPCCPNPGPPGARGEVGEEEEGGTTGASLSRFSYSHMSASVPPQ

[3] = DRUGMATRIX: Imidazoline I2, Central radioligand binding (ligand: [3H] Idazoxan); format: cell membranes, Rattus norvegicus, Wistar, Cerebral cortex, Membrane; conditions: Not Active = under 50% inhibition at 10 µM
[4] = molecular target: T2, Neuropeptide Y receptor type 2 (Homo sapiens, UniProt P49146); format: cell membranes, Membrane; conditions: kan-ts; further: in other assays of this panel Not Active means under 50% inhibition at 10 µM
T2 sequence (P49146 whole entry): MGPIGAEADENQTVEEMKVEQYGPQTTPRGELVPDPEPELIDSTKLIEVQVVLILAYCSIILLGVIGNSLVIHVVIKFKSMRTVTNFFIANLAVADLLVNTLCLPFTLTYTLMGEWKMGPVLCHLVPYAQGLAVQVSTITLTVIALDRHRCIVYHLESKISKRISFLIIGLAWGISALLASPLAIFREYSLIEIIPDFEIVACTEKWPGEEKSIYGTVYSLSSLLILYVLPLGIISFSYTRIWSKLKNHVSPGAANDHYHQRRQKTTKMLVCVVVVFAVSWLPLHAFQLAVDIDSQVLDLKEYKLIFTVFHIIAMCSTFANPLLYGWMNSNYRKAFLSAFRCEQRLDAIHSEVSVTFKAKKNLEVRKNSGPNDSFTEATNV

[5] = molecular target: T3, Nitric oxide synthase, inducible (Mus musculus, UniProt P29477); design: species or system Escherichia coli;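 further: inhibition of iNOS enzyme activity measured with L-arginine as substrate; in other assays of this panel Not Active means under 50% inhibition at 10 µM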
T3 sequence (P29477 whole entry): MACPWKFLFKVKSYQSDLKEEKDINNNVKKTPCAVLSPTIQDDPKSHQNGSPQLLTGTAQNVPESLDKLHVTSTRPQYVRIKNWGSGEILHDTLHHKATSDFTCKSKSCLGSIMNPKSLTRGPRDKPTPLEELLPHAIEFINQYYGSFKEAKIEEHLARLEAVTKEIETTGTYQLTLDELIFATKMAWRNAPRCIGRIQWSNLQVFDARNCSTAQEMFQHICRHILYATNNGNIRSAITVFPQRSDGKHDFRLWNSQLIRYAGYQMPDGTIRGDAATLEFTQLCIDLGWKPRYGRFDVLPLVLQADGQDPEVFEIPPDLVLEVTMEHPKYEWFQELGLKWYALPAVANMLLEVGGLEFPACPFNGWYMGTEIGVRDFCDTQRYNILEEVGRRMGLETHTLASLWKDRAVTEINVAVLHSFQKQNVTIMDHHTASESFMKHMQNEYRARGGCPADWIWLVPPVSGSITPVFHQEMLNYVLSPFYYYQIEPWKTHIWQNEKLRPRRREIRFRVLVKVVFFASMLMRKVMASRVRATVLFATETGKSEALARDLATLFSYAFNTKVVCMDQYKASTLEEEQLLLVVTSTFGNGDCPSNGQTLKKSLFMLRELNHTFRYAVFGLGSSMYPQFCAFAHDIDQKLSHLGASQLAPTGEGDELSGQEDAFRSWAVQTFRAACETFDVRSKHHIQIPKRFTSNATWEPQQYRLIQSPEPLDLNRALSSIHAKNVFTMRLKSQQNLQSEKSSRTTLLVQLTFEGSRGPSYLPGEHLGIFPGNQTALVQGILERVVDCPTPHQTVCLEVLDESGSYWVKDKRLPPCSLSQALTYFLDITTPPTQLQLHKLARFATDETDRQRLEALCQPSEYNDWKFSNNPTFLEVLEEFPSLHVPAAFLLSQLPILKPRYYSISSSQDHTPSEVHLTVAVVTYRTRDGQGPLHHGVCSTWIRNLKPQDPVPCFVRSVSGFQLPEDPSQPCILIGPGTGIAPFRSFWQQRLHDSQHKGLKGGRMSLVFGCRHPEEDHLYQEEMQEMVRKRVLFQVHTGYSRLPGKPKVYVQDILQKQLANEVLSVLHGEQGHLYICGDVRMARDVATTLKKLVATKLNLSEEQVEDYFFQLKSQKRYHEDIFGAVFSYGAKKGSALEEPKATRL

[6] = DRUGMATRIX: Potassium Channel [KATP] radioligand binding (ligand: [3H] Glyburide); format: cell membranes, Membrane; conditions: hit-t15; Not Active = under 50% inhibition at 10 µM
[7] = molecular target: Tyrosine-protein kinase Lck (Homo sapiens, UniProt P06239); assay: DRUGMATRIX: Protein Tyrosine Kinase, LCK enzyme inhibition (substrate: Poly(Glu:Tyr)); format: cell-based, Insect cells; conditions: Not Active = under 50% inhibition at 10 µM
Cytochrome P450 2A6 = molecular target: T4, Cytochrome P450 2A6 (Homo sapiens, UniProt P11509); conditions: bti-tn-5b1-4; further: in other assays of this panel Not Active means under 50% inhibition at 10 µM
T4 sequence (P11509 whole entry): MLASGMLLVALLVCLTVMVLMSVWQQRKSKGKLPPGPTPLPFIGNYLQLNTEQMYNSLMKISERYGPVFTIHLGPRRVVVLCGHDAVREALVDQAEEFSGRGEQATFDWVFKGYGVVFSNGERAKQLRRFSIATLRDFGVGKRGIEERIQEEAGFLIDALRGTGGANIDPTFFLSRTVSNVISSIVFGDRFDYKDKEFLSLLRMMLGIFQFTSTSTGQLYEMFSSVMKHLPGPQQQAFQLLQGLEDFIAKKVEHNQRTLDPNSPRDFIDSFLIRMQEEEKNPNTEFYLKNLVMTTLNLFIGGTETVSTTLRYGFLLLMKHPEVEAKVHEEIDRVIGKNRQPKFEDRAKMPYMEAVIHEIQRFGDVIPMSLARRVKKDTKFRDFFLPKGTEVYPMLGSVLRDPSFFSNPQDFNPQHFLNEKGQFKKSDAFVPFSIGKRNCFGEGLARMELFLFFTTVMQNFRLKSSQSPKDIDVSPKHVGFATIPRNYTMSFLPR

Sequence of Tyrosine-protein kinase Lck (P06239 whole entry): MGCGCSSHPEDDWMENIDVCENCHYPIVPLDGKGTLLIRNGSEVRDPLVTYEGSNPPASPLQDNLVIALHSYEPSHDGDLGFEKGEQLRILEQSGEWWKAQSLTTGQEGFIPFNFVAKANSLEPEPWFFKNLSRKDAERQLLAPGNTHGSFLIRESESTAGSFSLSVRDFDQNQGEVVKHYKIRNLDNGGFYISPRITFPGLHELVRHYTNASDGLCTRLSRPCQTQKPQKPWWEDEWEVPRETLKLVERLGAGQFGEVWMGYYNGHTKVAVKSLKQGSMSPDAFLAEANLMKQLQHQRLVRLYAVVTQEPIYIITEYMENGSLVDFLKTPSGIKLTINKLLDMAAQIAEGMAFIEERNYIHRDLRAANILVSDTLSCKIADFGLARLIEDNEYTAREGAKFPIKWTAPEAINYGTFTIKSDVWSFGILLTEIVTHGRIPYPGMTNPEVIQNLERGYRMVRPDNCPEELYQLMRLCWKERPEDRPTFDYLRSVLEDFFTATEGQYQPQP

Row | Structure (SMILES) | IC50 [1] | IC50 [2] | IC50 [3] | Ki [3] | IC50 [4] | IC50 [5] | IC50 [6] | Ki [6] | IC50 ([7]; insect cells) | IC50 (Cytochrome P450 2A6) | Ki (Cytochrome P450 2A6) | IC50 ([3]; read-out: IC50) [nM] | Ki ([3]; read-out: Ki) [nM] | IC50 ([7]; read-out: IC50) [nM]
1 | N[C@@H](Cc1ccc(N(CCCl)CCCl)cc1)C(=O)O | Not Active | Not Active | Not Active | Not Active | Not Active | Not Active | Not Active | Not Active | Not Active | Not Active | Not Active | – | – | –
2 | CC(C)N1CCN(c2ccc(OCC3COC(Cn4cncn4)(c4ccc(Cl)cc4Cl)O3)cc2)CC1 (configuration not stated) [TERCONAZOLE] | Not Active | Not Active | – | – | Not Active | Not Active | Not Active | Not Active | Not Active | Not Active | Not Active | 2230 | 1480 | –
3 | Cc1nc2n(c(=O)c1CCN1CCC(c3noc4cc(F)ccc34)CC1)CCCC2 [RISPERIDONE] | Not Active | Not Active | – | – | Not Active | Not Active | – | – | Not Active | Not Active | Not Active | – | – | –
4 | N[C@@H]1[C@H]2CN(c3nc4c(cc3F)c(=O)c(C(=O)O)cn4-c3ccc(F)cc3F)C[C@@H]12 [TROVAFLOXACIN] | Not Active | Not Active | Not Active | Not Active | Not Active | Not Active | Not Active | Not Active | – | Not Active | Not Active | – | – | –
5 | O=c1ncn2nc(Sc3ccc(F)cc3F)ccc2c1-c1c(Cl)cccc1Cl [NEFLAMAPIMOD] | Not Active | Not Active | Not Active | Not Active | Not Active | Not Active | Not Active | Not Active | Not Active | Not Active | Not Active | – | – | –
6 | CCCCc1oc2ccccc2c1C(=O)c1cc(I)c(OCCN(CC)CC)c(I)c1 [AMIODARONE] | Not Active | Not Active | – | – | Not Active | Not Active | – | – | Not Active | Not Active | Not Active | – | – | –
7 | CC[C@]1(O)C[C@H]2CN(CCc3c([nH]c4ccccc34)[C@@](C(=O)OC)(c3cc4c(cc3OC)N(C=O)[C@H]3[C@@](O)(C(=O)OC)[C@H](OC(C)=O)[C@]5(CC)C=CCN6CC[C@]43[C@@H]65)C2)C1 [VINCRISTINE] | Not Active | Not Active | Not Active | Not Active | Not Active | Not Active | Not Active | Not Active | Not Active | Not Active | Not Active | – | – | –
8 | CO[C@H]1/C=C/O[C@@]2(C)Oc3c(C)c(O)c4c(O)c(c(/C=N/N5CCN(C)CC5)c(O)c4c3C2=O)NC(=O)/C(C)=C\C=C\[C@H](C)[C@H](O)[C@@H](C)[C@@H](O)[C@@H](C)[C@H](OC(C)=O)[C@@H]1C [RIFAMPIN] | Not Active | Not Active | Not Active | Not Active | Not Active | Not Active | Not Active | Not Active | Not Active | Not Active | Not Active | – | – | –
9 | Cc1noc(NS(=O)(=O)c2ccc(N)cc2)c1C [SULFISOXAZOLE] | Not Active | Not Active | Not Active | Not Active | Not Active | Not Active | Not Active | Not Active | Not Active | Not Active | Not Active | – | – | –
10 | NS(=O)(=O)c1cc2c(cc1Cl)NC(C(Cl)Cl)NS2(=O)=O (configuration not stated) [TRICHLORMETHIAZIDE] | Not Active | Not Active | Not Active | Not Active | Not Active | Not Active | Not Active | Not Active | Not Active | Not Active | Not Active | – | – | –
11 | COc1nc(C)nc(Cl)c1NC1=NCCN1 [MOXONIDINE] | Not Active | Not Active | – | – | Not Active | Not Active | Not Active | Not Active | Not Active | Not Active | Not Active | 1480 | 984 | –
12 | Nc1nc2ccc(OC(F)(F)F)cc2s1 [RILUZOLE] | Not Active | Not Active | Not Active | Not Active | Not Active | Not Active | Not Active | Not Active | Not Active | – | – | – | – | –
13 | N[C@@H](Cc1cc(I)c(Oc2ccc(O)c(I)c2)c(I)c1)C(=O)O [LIOTHYRONINE] | Not Active | Not Active | – | – | Not Active | Not Active | – | – | Not Active | Not Active | Not Active | – | – | –
14 | C[C@@H]1CN(c2c(F)c(N)c3c(=O)c(C(=O)O)cn(C4CC4)c3c2F)C[C@H](C)N1 [SPARFLOXACIN] | Not Active | Not Active | Not Active | Not Active | Not Active | Not Active | Not Active | Not Active | Not Active | Not Active | Not Active | – | – | –
15 | CN1CCN(CCCN2c3ccccc3Sc3ccc(Cl)cc32)CC1 [PROCHLORPERAZINE] | Not Active | Not Active | – | – | Not Active | Not Active | – | – | Not Active | Not Active | Not Active | – | – | –
16 | Nc1nc2nc[nH]c2c(=S)[nH]1 [THIOGUANINE] | Not Active | Not Active | Not Active | Not Active | Not Active | Not Active | – | – | Not Active | Not Active | Not Active | – | – | –
17 | CC/C(=C(\c1ccccc1)c1ccc(OCCN(C)C)cc1)c1ccccc1 [TAMOXIFEN] | Not Active | Not Active | – | – | Not Active | Not Active | – | – | – | Not Active | Not Active | – | – | 8030
